Assay results: ChEMBL document CHEMBL5647694, “Novel orally bioavailable EZH1/2 dual inhibitors with greater antitumor efficacy than an EZH2 selective inhibitor” (Cancer Sci, 2017)

Key:
[1] = biological target: Fibroblast growth factor receptor 3 (Homo sapiens) (UniProt P22607); assay: Inhibition of N-terminal GST-fused human FGFR3 cytoplasmic domain (436 to 806 residues) expressed in baculovirus-infected Sf21 cells using CSKtide as substrate at 1 uM in presence of ATP by Mobility shift assay
[2] = biological target: MAP kinase-interacting serine/threonine-protein kinase 1 (Homo sapiens) (UniProt Q9BUB5); assay: Inhibition of N-terminal GST-fused full length human MNK1 (1 to 424 residues) expressed in baculovirus expression system using RS peptide as substrate at 1 uM in presence of ATP by Mobility shift assay
Sequence of MAP kinase-interacting serine/threonine-protein kinase 1 (Homo sapiens) (Q9BUB5 whole entry, looked up, the tested form may be a part): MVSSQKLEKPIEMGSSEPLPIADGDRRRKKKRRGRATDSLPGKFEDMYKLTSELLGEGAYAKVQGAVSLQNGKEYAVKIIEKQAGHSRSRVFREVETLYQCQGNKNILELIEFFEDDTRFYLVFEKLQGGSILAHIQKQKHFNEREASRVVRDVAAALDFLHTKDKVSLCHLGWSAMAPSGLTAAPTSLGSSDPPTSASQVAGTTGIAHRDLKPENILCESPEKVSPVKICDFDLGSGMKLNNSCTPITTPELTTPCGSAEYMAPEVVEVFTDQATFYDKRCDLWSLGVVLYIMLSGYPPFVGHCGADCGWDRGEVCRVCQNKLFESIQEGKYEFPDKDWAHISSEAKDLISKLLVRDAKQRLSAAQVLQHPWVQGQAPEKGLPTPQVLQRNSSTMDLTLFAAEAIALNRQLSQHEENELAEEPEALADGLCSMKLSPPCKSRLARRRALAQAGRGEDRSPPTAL

[3] = biological target: Tyrosine-protein kinase receptor UFO (Homo sapiens) (UniProt P30530); assay: Inhibition of N-terminal GST-fused human AXL cytoplasmic domain (464 to 885 residues) expressed in baculovirus-infected Sf21 cells using CSKtide as substrate at 1 uM in presence of ATP by Mobility shift assay
[4] = biological target: Protein kinase C delta type (Homo sapiens) (UniProt Q05655); assay: Inhibition of N-terminal GST-fused human full length PKC-delta (1 to 676 residues ) expressed in baculovirus expression system using PKC peptide as substrate at 1 uM in presence of ATP by Mobility shift assay
[5] = biological target: Tyrosine-protein kinase ITK/TSK (Homo sapiens) (UniProt Q08881); assay: Inhibition of N-terminal GST-fused full length human ITK (2 to 620 residues) expressed in baculovirus-infected Sf21 cells using Srctide as substrate at 1 uM in presence of ATP by Mobility shift assay
[6] = biological target: Serine/threonine-protein kinase SIK1 (Homo sapiens) (UniProt P57059); assay: Inhibition of N-terminal GST-fused full length human SIK (1 to 783 residues) expressed in baculovirus expression system using AMARA peptide as substrate at 1 uM in presence of ATP by Mobility shift assay
[7] = biological target: cAMP-dependent protein kinase catalytic subunit gamma (Homo sapiens) (UniProt P22612); assay: Inhibition of N-terminal GST-tagged full length human PKACgamma (1 to 351 residues) expressed in baculovirus expression system using Kemptide as substrate at 1 uM in presence of ATP by Mobility shift assay
[8] = biological target: Mitogen-activated protein kinase 7 (Homo sapiens) (UniProt Q13164); assay: Inhibition of N-terminal GST-fused human ERK5 catalytic domain (1 to 398 residues) expressed in Escherichia coli expression system using EGFR-derived peptide as substrate at 1 uM in presence of ATP by Mobility shift assay
[9] = biological target: Macrophage colony-stimulating factor 1 receptor (Homo sapiens) (UniProt P07333); assay: Inhibition of N-terminal GST-fused human FMS cytoplasmic domain (538 to 972 residues) expressed in baculovirus-infected Sf21 cells using Srctide as substrate at 1 uM in presence of ATP by Mobility shift assay
Sequence of Macrophage colony-stimulating factor 1 receptor (Homo sapiens) (P07333 whole entry, the tested form may be a part): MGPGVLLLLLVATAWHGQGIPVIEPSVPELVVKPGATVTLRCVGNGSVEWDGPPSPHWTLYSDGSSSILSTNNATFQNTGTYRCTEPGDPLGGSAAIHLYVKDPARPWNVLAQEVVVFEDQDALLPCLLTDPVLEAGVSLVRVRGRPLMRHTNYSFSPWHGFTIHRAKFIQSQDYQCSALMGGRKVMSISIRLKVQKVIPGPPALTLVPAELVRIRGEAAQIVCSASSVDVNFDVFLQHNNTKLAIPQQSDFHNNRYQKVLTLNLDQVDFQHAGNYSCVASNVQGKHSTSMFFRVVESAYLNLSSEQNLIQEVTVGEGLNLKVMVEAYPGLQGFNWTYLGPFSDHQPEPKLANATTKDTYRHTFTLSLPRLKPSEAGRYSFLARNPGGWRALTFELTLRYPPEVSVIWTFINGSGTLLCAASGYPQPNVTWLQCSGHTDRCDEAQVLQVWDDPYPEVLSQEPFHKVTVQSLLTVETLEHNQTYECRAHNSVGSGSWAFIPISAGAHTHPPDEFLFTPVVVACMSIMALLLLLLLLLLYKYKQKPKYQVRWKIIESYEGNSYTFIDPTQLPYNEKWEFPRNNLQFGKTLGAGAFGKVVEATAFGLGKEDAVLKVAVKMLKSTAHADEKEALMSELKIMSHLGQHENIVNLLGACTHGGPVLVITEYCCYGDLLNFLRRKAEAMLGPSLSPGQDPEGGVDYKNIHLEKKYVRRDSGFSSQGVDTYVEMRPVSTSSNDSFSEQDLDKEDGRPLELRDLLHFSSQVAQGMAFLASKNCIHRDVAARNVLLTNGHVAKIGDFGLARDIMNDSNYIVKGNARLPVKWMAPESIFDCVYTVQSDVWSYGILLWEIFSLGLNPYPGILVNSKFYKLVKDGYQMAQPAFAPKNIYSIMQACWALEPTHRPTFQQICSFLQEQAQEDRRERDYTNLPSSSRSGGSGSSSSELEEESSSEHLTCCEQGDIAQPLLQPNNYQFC

[10] = biological target: Protein kinase C theta type (Homo sapiens) (UniProt Q04759); assay: Inhibition of N-terminal GST-fused human full length PKC-theta (1 to 706 residues ) expressed in baculovirus expression system using PKC peptide as substrate at 1 uM in presence of ATP by Mobility shift assay
[11] = biological target: Mitogen-activated protein kinase 12 (Homo sapiens) (UniProt P53778); assay: Inhibition of N-terminal GST-fused full length human p38gamma (1 to 367 residues) expressed in Escherichia coli expression system using Modified Erktide as substrate at 1 uM in presence of ATP by Mobility shift assay
Sequence of Mitogen-activated protein kinase 12 (Homo sapiens) (P53778 whole entry, the tested form may be a part): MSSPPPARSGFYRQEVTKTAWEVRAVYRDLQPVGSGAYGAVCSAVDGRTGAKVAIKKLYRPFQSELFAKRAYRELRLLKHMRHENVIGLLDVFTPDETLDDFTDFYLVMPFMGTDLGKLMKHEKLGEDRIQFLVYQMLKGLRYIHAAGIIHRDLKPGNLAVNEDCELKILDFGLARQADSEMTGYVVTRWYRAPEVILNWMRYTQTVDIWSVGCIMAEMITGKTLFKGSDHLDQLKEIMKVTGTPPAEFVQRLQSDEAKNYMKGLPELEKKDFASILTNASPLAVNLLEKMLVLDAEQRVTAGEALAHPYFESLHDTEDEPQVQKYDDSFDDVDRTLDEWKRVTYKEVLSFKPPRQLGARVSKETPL

[12] = biological target: Platelet-derived growth factor receptor beta (Homo sapiens) (UniProt P09619); assay: Inhibition of N-terminal GST-tagged human PDGFR-beta cytoplasmic domain (557 to 1106 residues) expressed in baculovirus-infected Sf21 cells using CSKtide as substrate at 1 uM in presence of ATP by Mobility shift assay
Sequence of Platelet-derived growth factor receptor beta (Homo sapiens) (P09619 whole entry, the tested form may be a part): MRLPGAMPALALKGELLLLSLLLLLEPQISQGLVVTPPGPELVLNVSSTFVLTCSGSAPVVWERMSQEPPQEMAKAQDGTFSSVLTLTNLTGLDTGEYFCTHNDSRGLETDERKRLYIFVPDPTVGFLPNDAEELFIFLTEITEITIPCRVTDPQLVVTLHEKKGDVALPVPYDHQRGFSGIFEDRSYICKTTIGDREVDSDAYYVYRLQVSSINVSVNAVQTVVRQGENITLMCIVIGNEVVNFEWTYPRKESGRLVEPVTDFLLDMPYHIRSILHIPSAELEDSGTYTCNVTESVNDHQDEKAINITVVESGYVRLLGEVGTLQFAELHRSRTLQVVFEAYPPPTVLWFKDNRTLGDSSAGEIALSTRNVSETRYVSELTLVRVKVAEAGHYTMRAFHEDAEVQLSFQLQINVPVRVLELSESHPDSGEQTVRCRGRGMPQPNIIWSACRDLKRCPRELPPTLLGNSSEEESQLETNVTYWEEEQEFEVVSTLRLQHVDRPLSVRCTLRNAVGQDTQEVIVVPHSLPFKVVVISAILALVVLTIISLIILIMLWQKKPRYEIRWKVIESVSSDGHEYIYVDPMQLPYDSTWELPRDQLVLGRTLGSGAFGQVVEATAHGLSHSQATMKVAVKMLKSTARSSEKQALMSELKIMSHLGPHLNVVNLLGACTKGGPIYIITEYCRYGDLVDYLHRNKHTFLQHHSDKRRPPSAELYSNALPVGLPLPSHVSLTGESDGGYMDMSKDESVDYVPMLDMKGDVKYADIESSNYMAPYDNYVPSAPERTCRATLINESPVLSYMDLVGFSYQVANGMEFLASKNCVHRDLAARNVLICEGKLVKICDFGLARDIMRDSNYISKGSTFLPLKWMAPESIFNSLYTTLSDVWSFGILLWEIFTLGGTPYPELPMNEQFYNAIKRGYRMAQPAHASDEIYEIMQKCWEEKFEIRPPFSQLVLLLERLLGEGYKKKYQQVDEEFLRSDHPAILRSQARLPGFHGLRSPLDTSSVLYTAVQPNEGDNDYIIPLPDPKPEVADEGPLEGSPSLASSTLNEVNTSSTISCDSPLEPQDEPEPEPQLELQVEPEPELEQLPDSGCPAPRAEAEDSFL

[13] = biological target: Misshapen-like kinase 1 (Homo sapiens) (UniProt Q8N4C8); assay: Inhibition of N-terminal GST-fused human MINK catalytic domain (1 to 314 residues) expressed in baculovirus expression system using Modified Erktide as substrate at 1 uM in presence of ATP by Mobility shift assay
[14] = biological target: Calcium/calmodulin-dependent protein kinase type II subunit gamma (Homo sapiens) (UniProt Q13555); assay: Inhibition of N-terminal GST-tagged full length human CAMK2g (1 to 518 residues) expressed in baculovirus-infected Sf21 cells using GS peptide as substrate at 1 uM in presence of ATP by Mobility shift assay
[15] = biological target: Interferon-induced, double-stranded RNA-activated protein kinase (Homo sapiens) (UniProt P19525); assay: Inhibition of N-terminal GST-fused human PKR catalytic domain (252 to 551 residues) expressed in baculovirus expression system using SRPKtide as substrate at 1 uM in presence of ATP by IMAP
[16] = biological target: Dual specificity protein kinase CLK1 (Homo sapiens) (UniProt P49759); assay: Inhibition of N-terminal GST fused human CLK1 catalytic domain (129 to 484 residues) expressed in baculovirus expression system using DYRKtide-F as substrate at 1 uM in presence of ATP by Mobility shift assay
Sequence of Dual specificity protein kinase CLK1 (Homo sapiens) (P49759 whole entry, looked up, the tested form may be a part): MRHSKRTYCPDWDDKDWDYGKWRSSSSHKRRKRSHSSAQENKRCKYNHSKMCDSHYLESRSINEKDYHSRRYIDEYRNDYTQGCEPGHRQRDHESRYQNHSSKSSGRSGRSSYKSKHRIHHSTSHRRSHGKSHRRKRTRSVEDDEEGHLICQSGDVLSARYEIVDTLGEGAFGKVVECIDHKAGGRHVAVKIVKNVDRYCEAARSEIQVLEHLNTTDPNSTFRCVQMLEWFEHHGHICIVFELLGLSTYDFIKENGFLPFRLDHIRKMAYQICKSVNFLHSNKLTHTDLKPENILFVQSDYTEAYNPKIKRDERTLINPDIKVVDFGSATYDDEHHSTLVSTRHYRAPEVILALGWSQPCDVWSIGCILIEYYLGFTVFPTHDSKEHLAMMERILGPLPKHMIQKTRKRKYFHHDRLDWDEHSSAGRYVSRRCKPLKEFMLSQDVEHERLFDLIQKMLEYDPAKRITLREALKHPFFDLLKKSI

[17] = biological target: [Pyruvate dehydrogenase (acetyl-transferring)] kinase isozyme 4, mitochondrial (Homo sapiens) (UniProt Q16654); assay: Inhibition of N-terminal GST-fused full length human PDHK4 (1 to 411 residues) expressed in Escherichia coli expression system using PDHKtide as substrate at 1 uM in presence of ATP by Mobility shift assay
[18] = biological target: Serine/threonine-protein kinase LATS2 (Homo sapiens) (UniProt Q9NRM7); assay: Inhibition of N-terminal GST-fused human LATS2 catalytic domain (553 to 1088 residues) expressed in baculovirus expression system using SGKtide as substrate at 1 uM in presence of ATP by Mobility shift assay
[19] = biological target: Maternal embryonic leucine zipper kinase (Homo sapiens) (UniProt Q14680); assay: Inhibition of N-terminal GST-fused truncated human MELK (1 to 493 residues) expressed in Escherichia coli expression system using GS peptide as substrate at 1 uM in presence of ATP by Mobility shift assay
[20] = biological target: MAP kinase-interacting serine/threonine-protein kinase 2 (Homo sapiens) (UniProt Q9HBH9); assay: Inhibition of N-terminal GST-fused full length human MNK2 (1 to 465 residues) expressed in baculovirus expression system using RS peptide as substrate at 1 uM in presence of ATP by Mobility shift assay
[21] = biological target: Inhibitor of nuclear factor kappa-B kinase subunit epsilon (Homo sapiens) (UniProt Q14164); assay: Inhibition of N-terminal GST-fused full length human IKK-epsilon(1 to 716 residues) expressed in baculovirus expression system using IkBalpha peptide as substrate at 1 uM in presence of ATP by Mobility shift assay
[22] = biological target: TRAF2 and NCK-interacting protein kinase (Homo sapiens) (UniProt Q9UKE5); assay: Inhibition of N-terminal GST-fused human TNIK catalytic domain (1 to 314 residues) expressed in baculovirus expression system using Moesin-derived peptide as substrate at 1 uM in presence of ATP by Mobility shift assay
Sequence of TRAF2 and NCK-interacting protein kinase (Homo sapiens) (Q9UKE5 whole entry, looked up, the tested form may be a part): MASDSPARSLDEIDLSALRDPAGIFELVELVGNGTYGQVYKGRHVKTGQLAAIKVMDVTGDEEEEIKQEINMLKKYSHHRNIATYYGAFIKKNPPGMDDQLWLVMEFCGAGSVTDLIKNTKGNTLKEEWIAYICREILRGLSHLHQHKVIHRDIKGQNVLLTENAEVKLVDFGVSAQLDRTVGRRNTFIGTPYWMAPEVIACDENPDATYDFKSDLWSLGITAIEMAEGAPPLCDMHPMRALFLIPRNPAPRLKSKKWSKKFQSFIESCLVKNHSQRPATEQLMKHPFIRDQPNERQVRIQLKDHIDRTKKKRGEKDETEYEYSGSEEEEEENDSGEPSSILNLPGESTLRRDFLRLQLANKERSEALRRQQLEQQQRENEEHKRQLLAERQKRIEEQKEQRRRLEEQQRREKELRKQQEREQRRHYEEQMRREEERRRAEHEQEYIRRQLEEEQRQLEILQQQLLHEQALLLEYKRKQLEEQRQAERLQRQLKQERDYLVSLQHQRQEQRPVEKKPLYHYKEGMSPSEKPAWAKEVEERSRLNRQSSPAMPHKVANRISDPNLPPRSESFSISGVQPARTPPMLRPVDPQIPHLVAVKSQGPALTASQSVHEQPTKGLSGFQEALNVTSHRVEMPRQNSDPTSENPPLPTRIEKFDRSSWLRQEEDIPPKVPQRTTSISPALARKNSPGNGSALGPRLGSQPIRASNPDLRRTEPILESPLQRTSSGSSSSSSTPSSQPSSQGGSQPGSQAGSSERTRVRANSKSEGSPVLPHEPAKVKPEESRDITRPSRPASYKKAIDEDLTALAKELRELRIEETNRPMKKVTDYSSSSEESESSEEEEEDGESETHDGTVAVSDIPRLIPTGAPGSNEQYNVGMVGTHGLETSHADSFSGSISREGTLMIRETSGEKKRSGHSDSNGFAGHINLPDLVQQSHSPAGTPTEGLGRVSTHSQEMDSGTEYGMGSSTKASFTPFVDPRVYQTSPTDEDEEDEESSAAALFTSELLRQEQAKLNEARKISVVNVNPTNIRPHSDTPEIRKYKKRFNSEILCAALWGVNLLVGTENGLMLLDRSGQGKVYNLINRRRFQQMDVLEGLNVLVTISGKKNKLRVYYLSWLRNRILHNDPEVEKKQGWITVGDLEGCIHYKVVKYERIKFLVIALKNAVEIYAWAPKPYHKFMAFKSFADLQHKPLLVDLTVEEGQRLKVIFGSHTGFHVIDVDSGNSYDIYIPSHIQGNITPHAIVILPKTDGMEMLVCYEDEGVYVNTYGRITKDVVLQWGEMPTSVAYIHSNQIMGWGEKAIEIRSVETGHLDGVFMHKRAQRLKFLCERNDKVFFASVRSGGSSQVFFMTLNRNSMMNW

With `Cc1cc(C)c(CNC(=O)c2cc(Cl)c3c(c2C)O[C@@](C)([C@H]2CC[C@H](N(C)C)CC2)O3)c(=O)[nH]1` [VALEMETOSTAT] the inhibition [1] was -2.3%, the inhibition [2] was 0.2% and the inhibition [3] was -3.5%. The inhibition [4] was 2.7%, the inhibition [5] was -5.8% and the inhibition [6] was 6.2%. The inhibition [7] was -2.4%, the inhibition [8] was -2.3% and the inhibition [9] was 1.3%. For the same compound, the inhibition [10] was -0.6%, the inhibition [11] was -3% and the inhibition [12] was -4.5%. The inhibition [13] was -4.6%, the inhibition [14] was -5.4% and the inhibition [15] was 2.9%. The inhibition [16] was 1.7%, the inhibition [17] was -4.3% and the inhibition [18] was 0.6%. It also gave an inhibition [19] of 1.3%, an inhibition [20] of 8.7% and an inhibition [21] of -2.8%. For the same compound, the inhibition [22] was 0.3%.
Work on `Cc1cc(C)c(CNC(=O)c2cc(Br)c3c(c2C)O[C@@](C)([C@H]2CC[C@H](N(C)C)CC2)O3)c(=O)[nH]1` yielded an inhibition [1] of -1.9%, an inhibition [2] of -0.2% and an inhibition [3] of -0.5%. For the same compound, the inhibition [4] was 1.5%, the inhibition [5] was -5.6% and the inhibition [6] was -3.1%. The inhibition [7] was -1.4%, the inhibition [8] was -2.5% and the inhibition [9] was -0.4%. It also gave an inhibition [10] of 6.6%, an inhibition [11] of -1.6% and an inhibition [12] of -1.3%. It also gave an inhibition [13] of -2.6%, an inhibition [14] of -4.8% and an inhibition [15] of -3%. For the same compound, the inhibition [16] was -3.3%, the inhibition [17] was -4.1% and the inhibition [18] was -0.6%. The inhibition [19] was 2.9%, the inhibition [20] was 7.2% and the inhibition [21] was -5.6%. For the same compound, the inhibition [22] was 1.1%.
